{
  "source": "patent US20100041672A1",
  "about": "“USE OF QUINOLINE DERIVATIVES IN THE TREATMENT OF PAIN AND IRRITABLE BOWEL SYNDROME” (GLAXO GROUP LIMITED, priority 2007, published 2010)",
  "key": {"rats [1]": {"test_system": "rats", "test": "FCA induced hypersensitivity rat model (intraplantar FCA, weight bearing)", "type": "in vivo", "conditions": "1 hour post dose; for weight bearing % reversal: 24 hrs after FCA; for effect on FCA induced hypersensitivity: p.o., intraplantar FCA", "method": "(§1) Naïve weight bearing readings were taken. The hypersensitivity to pain was measured using the Rat incapacitance tester (Linton instruments). All rats (180-220 g) received an intraplantar injection of 100 ul of FCA (Freund's complete adjuvant) into the left hind paw. The FCA was sonicated for 15 minutes prior to use. 24 hrs after administration of the FCA, pre-dose weight bearing readings were taken. All animals were then ranked and randomised for dosing according to their FCA window (predose difference in grams—naïve difference in grams). Rats with FCA window less than 30 were excluded from the study.\nAnimals were then dosed orally with either vehicle, SB42457 (0.01, 0.1, 1 and 10 mg/kg p.o.) or celecoxib (10 mg/kg p.o.) as appropriate according to ranking and randomisation. Animals were assessed in the weight bearing apparatus 1 hour post dose.\nThe study was blind and randomised by FCA window using the Latin square method. % reversals were calculated by using the naïve, pre-dose and post dose values as follows: % Reversal=[(Pre-dose−Post-dose)/(Pre-dose−Naïve)]×100.\nGraphs were plotted using Prism3. Statistical analysis was carried out using ANOVA and Fischer LSD test from statistical package Statistica 6.\nIn this study a positive control was also tested (celecoxib).\nas §1, with “(200-220” for “(180-220”\nAnimals were then dosed orally with vehicle, SB-792988-A (0.01, 0.1, 1 and 10 mg/kg p.o.), SB-399885-A (10 mg/kg p.o.) or celecoxib (10 mg/kg p.o.) as appropriate according to ranking and randomisation. Animals were assessed in the weight bearing apparatus 1 hour post dose.\nGraphs and were plotted using Prism3. Statistical analysis was carried out using ANOVA and Fischer LSD test from statistical package Statistica 6."}, "rats [2]": {"test_system": "rats", "test": "Chronic Constriction Injury (CCI) model of neuropathic pain in rats (mechanical allodynia, Von Frey hairs)", "type": "in vivo, rat", "conditions": "10 mg/kg b.i.d. po", "method": "Under Isoflurane anaesthesia, the sciatic nerve in the left leg of the rat was exposed at mid thigh level and 4 loose ligatures of Chromic 4.0 gut tied around it. The wound was closed and secured with staples. The Sham operated animals underwent the same surgical technique except that the nerve was not ligated. […] The presence of mechanical (tactile) allodynia was assessed using the manual application of Von Frey hair monofilaments (Stoelting, Wood Dale, Ill., USA). Animals were placed in clear Perspex boxes on a raised perforated metallic platform, from below which the monofilaments were applied in ascending order to the plantar region of the hind paw (range: 1.4 g-26 g). Each hair was applied for approx. 3-5 seconds until a withdrawal response was observed. The lowest hair to give a withdrawal was recorded as the response after confirmation with reapplication of lower and/or higher hairs within the range tested.\nAll data are expressed as mean±s.e.m. Statistical analysis was carried out using Repeated Measures ANOVA (Statistica Version 6) to compare the vehicle treated groups with the drug treated groups (P<0.05 considered significant). Area Under Curve (AUC) calculations were performed within Excel and statistical analysis was carried out using a one-way ANOVA followed by Fischer LSD post-hoc test (Statistica Version 6) to compare the vehicle treated CCI and Sham groups with the drug treated groups (P<0.05 considered significant). Data recorded in Excel (Microsoft XP) and graphs produced in GraphPad Prism (Version 4).\nBy 8 days post-surgery neuropathy was beginning to develop as mechanical allodynia (assessed using mVFHs) was evident in all CCI operated groups compared to the Sham operated animals. This was maintained as a stable baseline until day 23 post-surgery (FIG. 12), when the animals were randomised and then chronically dosed with either SB742457 (10 mg/kg b.i.d. po), gabapentin (30 mg/kg b.i.d. po) or vehicle (1% methylcellulose; b.i.d. po) for 8 days (days 26-33 post-surgery). […] Three days after cessation of treatment the withdrawal thresholds of the drug treated groups had decreased back towards vehicle treated baseline levels."}},
  "note": "Entries after “also recorded” stand apart in the source; their conditions may differ.",
  "data": [
    {"smiles": "Cl.O=S(=O)(c1cccc(F)c1)c1cnc2c(N3CCNCC3)cccc2c1", "note": "[SB792988A, 3-[(3-Fluorophenyl)sulfonyl]-8-(1-piperazinyl)quinoline Hydrochloride]", "values": [
      {"measurement": "weight bearing % reversal", "setting": "rats [1]; 0.01 mg/kg p.o., Table 7", "result": "22.91 ± 4.13", "unit": "%"},
      {"measurement": "weight bearing % reversal", "setting": "rats [1]; 0.1 mg/kg p.o., Table 7", "result": "22.11 ± 5.18", "unit": "%"},
      {"measurement": "weight bearing % reversal", "setting": "rats [1]; 1 mg/kg p.o., Table 7", "result": "38.76 ± 5.88", "unit": "%"},
      {"measurement": "weight bearing % reversal", "setting": "rats [1]; 10 mg/kg p.o., Table 7", "result": "67.00 ± 5.08", "unit": "%"},
      {"measurement": "effect on FCA induced hypersensitivity", "setting": "rats [1]", "result": "dose-dependent reversal"}
    ]},
    {"smiles": "O=S(=O)(c1ccccc1)c1cnc2c(N3CCNCC3)cccc2c1", "note": "[SB742457, 3-Phenylsulfonyl-8-piperazin-1-yl-quinoline]", "values": [
      {"measurement": "weight bearing % reversal", "setting": "rats [1]; 0.01 mg/kg p.o., Table 5", "result": "27.68 ± 6.39", "unit": "%"},
      {"measurement": "weight bearing % reversal", "setting": "rats [1]; 0.1 mg/kg p.o., Table 5", "result": "53.09 ± 5.68", "unit": "%"},
      {"measurement": "weight bearing % reversal", "setting": "rats [1]; 1 mg/kg p.o., Table 5", "result": "60.17 ± 6.73", "unit": "%"},
      {"measurement": "weight bearing % reversal", "setting": "rats [1]; 10 mg/kg p.o., Table 5", "result": "76.97 ± 7.17", "unit": "%"},
      {"measurement": "effect on FCA induced hypersensitivity", "setting": "rats [1]", "result": "dose-dependent reversal"},
      {"measurement": "reversal of mechanical allodynia after 5 days of dosing", "setting": "rats [2]; after 5 days of dosing", "result": "not significantly different to Sham levels; also recorded: maximal reversal back to Sham levels"},
      {"measurement": "reversal of mechanical allodynia after 8 days of dosing", "setting": "rats [2]; after 8 days of dosing", "result": "maximal reversal (P<0.001) back to Sham levels"},
      {"measurement": "time to significant reversal of CCI-induced mechanical allodynia", "setting": "rats [2]; after a single dose", "result": "≤ 1", "unit": "h"},
      {"measurement": "comparison with the positive control gabapentin (30 mg/kg b.i.d. po)", "setting": "rats [2]; throughout the study", "result": "not significantly different to each other"}
    ]}
  ]
}
